This note sets out measurements from PubChem BioAssay (NCI).

Where “and” joins values, the source holds several entries; their conditions need not be identical. Identical values can stand only once.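 Five compound concentrations were applied to cells in 96-well plates for 48 hours; endpoints were derived by simple linear interpolation of the resulting dose-response curve. Abbreviation: GI50, concentration required for 50% inhibition of growth. TGI: concentration producing complete growth inhibition.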

One assay concerns SR leukemia. As to the kind of experiment: DTP human tumour cell line panel, 48 h.
Take `COc1ccc2c(c1)NC1=C(C(=O)OC1)C2c1cc(OC)c(OC)c(OC)c1` (centres undefined): the GI50 was less than 0.01 µM and the TGI was greater than 100 µM.

For `CCOc1cc(C(C)(C)C)ccc1C1=N[C@H](c2ccc(Cl)cc2)[C@H](c2ccc(Cl)cc2)N1C(=O)N1CCN(CC#Cc2cccc3c2CN([C@@H]2CCC(=O)NC2=O)C3=O)CC1`, the GI50 was 0.642 µM and the TGI is greater than 100 µM.

`NCCCNCCS`: the GI50 is > 100 µM and 37 µM; the TGI is greater than 100 µM.

`O=C1C(=O)c2ccccc2C(O)=C1C(C1=C(O)c2ccccc2C(=O)C1=O)c1ccc(Cl)cc1` came in with a TGI of 24.7 µM.

Compound `Nc1ncnc2c1ncn2C1C=C(CO)C(O)C1O` (centres undefined) gave a TGI of 3.24 µM.

`O=C(O)CSCCc1ccccc1` had a TGI greater than 100 µM.

In the case of `O=NNc1ccc2ccccc2n1`, the TGI is greater than 100 µM.

As for `COc1ccc(C(C#N)NC23CC4CC(CC(C4)C2)C3)cc1` (centres undefined), the TGI is greater than 100 µM.

As for `CC(C)(C)c1cc([N+](=O)[O-])cc([N+](=O)[O-])c1O`, the TGI was greater than 10 µM.

`Cc1cc(N(CC(C)Br)CC(C)Br)ccc1N=Nc1ccccc1C(=O)O` (centres undefined) showed a TGI greater than 40.7 µM.

The subject of a further assay is EKVX NSCLC. The assay is described as follows: DTP human tumour cell line panel, 48 h.
Take `CCCCCCCCCCCCCCCCCCOC[C@H](COP(=O)(O)O[C@H]1[C@H](O)[C@@H](O)[C@H](O)C[C@H]1O)OC`: the GI50 was 82.8 µM and 13.3 µM; the concentration for total growth inhibition (TGI) was > 100 µM and 26.8 µM.

`Nc1n[nH]c2cccc(C#Cc3cccc(NC(=O)c4cccc(C(F)(F)F)c4)c3)c12`: the GI50 is 6.2 µM and the TGI stood at 19.8 µM.

Turning to `COCCOC(=O)C1=C(O)c2ccccc2S(=O)(=O)N1C`, the TGI was greater than 100 µM.

The compound `CNC(=O)OCc1nc(SSC(C)(C)C)n(C)c1COC(=O)NC` returned a TGI of 20.7 µM.

`CC(C)C(O)(C(C)C)C(C)C`: the TGI is greater than 100 µM.

As for `CC1(C)N=C(N)N=C(N)N1c1ccc(CCC(=O)Nc2ccc(S(=O)(=O)F)cc2)c(Cl)c1`, the GI50 was 2.78 µM and the TGI was greater than 100 µM.

For the compound `COC(=O)c1ccc2[nH]c(O)c(C(=Nc3ccc(N(C)C(=O)CN4CCN(C)CC4)cc3)c3ccc4c(c3)OCO4)c2c1`, the GI50 is 1.4 µM and the TGI came out at 3.45 µM.

With `COc1ccc2c(c1)OC1=C(C(=O)OC1)C2c1cc(OC)c2c(c1)OCCO2` (centres undefined), the GI50 is 0.0682 µM and the TGI is greater than 100 µM.

Turning to `N[C@H](C(=O)O)[C@@H]1CC(Cl)=NO1`, the GI50 was 11.5 µM and the TGI stood at 303 µM.

For the compound `Oc1ccc2ccccc2c1N=Nc1cccc2ccccc12`, the TGI was greater than 100 µM.

Regarding `COc1ccc2c(c1)NC1=C(C(=O)OC1)C2c1cc(OC)c(OC)c(OC)c1` (centres undefined), the GI50 is 12 µM and the concentration for total growth inhibition (TGI) is greater than 100 µM.

Turning to `CCOc1cc(C(C)(C)C)ccc1C1=N[C@H](c2ccc(Cl)cc2)[C@H](c2ccc(Cl)cc2)N1C(=O)N1CCN(CC#Cc2cccc3c2CN([C@@H]2CCC(=O)NC2=O)C3=O)CC1`, the GI50 was 3.98 µM and the TGI is greater than 100 µM.

In the case of `NCCCNCCS`, the TGI was greater than 100 µM.

`O=C1C(=O)c2ccccc2C(O)=C1C(C1=C(O)c2ccccc2C(=O)C1=O)c1ccc(Cl)cc1` yielded a TGI of 32.1 µM.

In turn, `Nc1ncnc2c1ncn2C1C=C(CO)C(O)C1O` (centres undefined) returned a TGI greater than 100 µM.

With `O=C(O)CSCCc1ccccc1`, the TGI is greater than 100 µM.

`O=NNc1ccc2ccccc2n1`: the TGI is greater than 100 µM.

Take `COc1ccc(C(C#N)NC23CC4CC(CC(C4)C2)C3)cc1` (centres undefined): the TGI was greater than 100 µM.

`CC(C)(C)c1cc([N+](=O)[O-])cc([N+](=O)[O-])c1O` came in with a concentration for total growth inhibition (TGI) greater than 10 µM.

On to `Cc1cc(N(CC(C)Br)CC(C)Br)ccc1N=Nc1ccccc1C(=O)O` (centres undefined), for which the TGI is 21.8 µM.

For another assay, the system named is LOX IMVI melanoma. As to the kind of experiment: DTP human tumour cell line panel, 48 h.
Take `CCCCCCCCCCCCCCCCCCOC[C@H](COP(=O)(O)O[C@H]1[C@H](O)[C@@H](O)[C@H](O)C[C@H]1O)OC`: the GI50 was 47.1 µM and 13.4 µM; the TGI was > 100 µM and 27.3 µM.

Regarding `Nc1n[nH]c2cccc(C#Cc3cccc(NC(=O)c4cccc(C(F)(F)F)c4)c3)c12`, the GI50 is 1.53 µM and the TGI amounted to 3.41 µM.

`COCCOC(=O)C1=C(O)c2ccccc2S(=O)(=O)N1C` came in with a TGI greater than 100 µM.

Regarding `CNC(=O)OCc1nc(SSC(C)(C)C)n(C)c1COC(=O)NC`, the TGI came out at 8.61 µM.

As to `CC(C)C(O)(C(C)C)C(C)C`, the total growth inhibition concentration (TGI) is greater than 100 µM.

Consider `CC1(C)N=C(N)N=C(N)N1c1ccc(CCC(=O)Nc2ccc(S(=O)(=O)F)cc2)c(Cl)c1`, for which the GI50 was 0.402 µM and the TGI is greater than 100 µM.

Regarding `COC(=O)c1ccc2[nH]c(O)c(C(=Nc3ccc(N(C)C(=O)CN4CCN(C)CC4)cc3)c3ccc4c(c3)OCO4)c2c1`, the GI50 was 0.415 µM and the TGI is 1.9 µM.

Regarding `COc1ccc2c(c1)OC1=C(C(=O)OC1)C2c1cc(OC)c2c(c1)OCCO2` (centres undefined), the GI50 was 0.0802 µM and the TGI is greater than 100 µM.

Consider `N[C@H](C(=O)O)[C@@H]1CC(Cl)=NO1`, for which the GI50 is 3.28 µM and the TGI is greater than 1000 µM.

`Oc1ccc2ccccc2c1N=Nc1cccc2ccccc12` showed a TGI greater than 100 µM.

Consider `COc1ccc2c(c1)NC1=C(C(=O)OC1)C2c1cc(OC)c(OC)c(OC)c1` (centres undefined), for which the GI50 was less than 0.01 µM and the TGI was greater than 100 µM.

As to `CCOc1cc(C(C)(C)C)ccc1C1=N[C@H](c2ccc(Cl)cc2)[C@H](c2ccc(Cl)cc2)N1C(=O)N1CCN(CC#Cc2cccc3c2CN([C@@H]2CCC(=O)NC2=O)C3=O)CC1`, the GI50 was 2.05 µM and the TGI is 22.7 µM.

`NCCCNCCS` returned a TGI greater than 100 µM.

In the case of `O=C1C(=O)c2ccccc2C(O)=C1C(C1=C(O)c2ccccc2C(=O)C1=O)c1ccc(Cl)cc1`, the TGI is 7.78 µM.

The compound `Nc1ncnc2c1ncn2C1C=C(CO)C(O)C1O` (centres undefined) displayed a TGI of 45.4 µM.

For `O=C(O)CSCCc1ccccc1`, the TGI is greater than 100 µM.

Turning to `O=NNc1ccc2ccccc2n1`, the TGI was greater than 100 µM.

As to `COc1ccc(C(C#N)NC23CC4CC(CC(C4)C2)C3)cc1` (centres undefined), the TGI is greater than 100 µM.

The compound `CC(C)(C)c1cc([N+](=O)[O-])cc([N+](=O)[O-])c1O` gave a TGI greater than 10 µM.

Compound `Cc1cc(N(CC(C)Br)CC(C)Br)ccc1N=Nc1ccccc1C(=O)O` (centres undefined) showed a TGI of 31.9 µM.
